The structures appear in SMILES notation.

Among the data in patent US12466831B2, “Substituted amino triazolopyrimidine and amino triazolopyrazine adenosine receptor antagonists, pharmaceutical compositions and their use” (Merck Sharp & Dohme LLC, priority 2018, dated 2025) are IC50 values, retold here.

Assay [1] addresses T1, human A2b adenosine receptor (Homo sapiens, UniProt P29275).
T1 construct: purchased Perkin Elmer ES-013-C; host or cells: HEK293 cells recombinantly expressing the receptor; membranes made from them
T1 sequence (P29275 1-332): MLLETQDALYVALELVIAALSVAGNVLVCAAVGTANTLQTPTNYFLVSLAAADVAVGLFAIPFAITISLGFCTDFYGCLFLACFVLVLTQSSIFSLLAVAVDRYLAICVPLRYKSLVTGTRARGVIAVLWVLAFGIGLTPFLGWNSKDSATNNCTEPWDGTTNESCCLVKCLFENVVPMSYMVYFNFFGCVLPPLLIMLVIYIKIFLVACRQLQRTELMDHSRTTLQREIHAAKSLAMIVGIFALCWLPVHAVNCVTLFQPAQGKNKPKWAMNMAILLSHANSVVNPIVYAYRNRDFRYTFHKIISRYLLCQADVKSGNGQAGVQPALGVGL
Kind of assay: A2b binding affinity, radioligand filtration binding assay. The settings on record: tritiated proprietary A2b antagonist, HEK293 membranes expressing human A2b. The source says: (§1) Method (A) describes the procedure used to measure A2a binding affinity using radioligand binding. Method (B) describes the procedure used to measure A2a binding affinity using SPA technology. The method used to measure A2b binding affinity is also described below. The method used to determine the A2a IC50 value reported for each compound in the table is indicated next to the reported value. The A2b IC50 value measured using the A2b binding affinity assay is shown in the table next to the compound under the corresponding A2a value.
Measurement of A2b Binding Affinity
The reported affinity of the compounds of the invention for the human A2b adenosine receptor was determined experimentally using a radioligand filtration binding assay. This assay measures the amount of binding of a tritiated proprietary A2b receptor antagonist, in the presence and absence of a compound of the invention, to membranes made from HEK293 cells recombinantly expressing the human A2b adenosine receptor (Perkin Elmer, Cat. No. ES-013-C).
148 μL (135 μg/mL) membranes and 2 μL test compounds were transferred to individual wells of a 96-well polypropylene assay plate and incubated for 15 to 30 minutes at room temperature with agitation. Tritiated radioligand was diluted to a concentration of 14 nM in assay buffer (phosphate buffered saline without Magnesium and Calcium, pH 7.4; GE Healthcare Life Sciences, Cat. No. SH30256.01) and then 50 μL of the solution were transferred to each well of the assay plate. To define total and non-specific binding, wells containing 1% DMSO and 20 μM N-ethylcarboxamidoadenosine (Tocris Bioscience, Cat. No. 1691) respectively, were also included. The wells of the assay plate were incubated at room temperature for 60 minutes with agitation, then filtered using a FilterMate Harvester® (Perkin Elmer) or similar equipment through a UniFilter-96® PEI coated plate (Perkin Elmer Cat. No. 6005274 or 6005277). Filtering was achieved by aspirating the contents of the assay plate for 5 seconds, then washing and aspirating the contents three times with ice-cooled wash buffer (assay buffer supplemented with 0.0025% Brij58) and allowing the vacuum manifold to dry the plate for 30 seconds. The filter plate was incubated for at least 1 hour at 55° C. and allowed to dry. The bottom of the filter plate was then sealed with backing tape. 40 μL Ultima Gold™ (Perkin Elmer, Cat. No. 6013329) was added to each well of the filter plate and the top of the plate was sealed with TopSeal-A PLUS® clear plate seal (Perkin Elmer, Cat. No. 6050185). The plates were then incubated for at least 20 minutes, and then the amount of radioactivity remaining in each well was determined using a TopCount® (Perkin Elmer) scintillation counter. After normalization to total and non-specific binding, the percent effect at each compound concentration was calculated. The plot of percent effect versus the log of compound concentration was analyzed electronically using a 4-parameter logistic fit based on the Levenberg-Marquardt algorithm to generate IC50 values.

For assay [2], the target named is T2, human A2a adenosine receptor (Homo sapiens, UniProt P29274).
T2 construct: purchased Perkin Elmer RBHA2aM400UA; host or cells: HEK293 or CHO cells (recombinant expression)
Put plainly: A2a binding affinity using radioligand binding, Method (A). The settings on record: Method (A): [3H]SCH58261 filtration binding, membranes expressing human A2a.
Source text: as §1
The A2a receptor affinity binding assay measured the amount of binding of a tritiated ligand with high affinity for the A2a adenosine receptor to membranes made from HEK293 or CHO cells recombinantly expressing the human A2a adenosine receptor, in the presence of varying concentrations of a compound of the invention. The data were generated using either filtration binding or a homogenous scintillation proximity assay (SPA).
Method (A): Measurement of A2a Binding Affinity Using Radioligand Binding
148 μL (5 μg/mL) membranes (Perkin Elmer, Cat. No. RBHA2aM400UA) and 2 μL compounds of the invention to be tested (test compound) were transferred to individual wells of a 96-well polypropylene assay plate and incubated for 15 to 30 minutes at room temperature. [^3H] SCH58261 ((7-(2-phenylethyl)-5-amino-2-(2-furyl)-pyrazolo-[4,3-e]-1,2,4-triazolo[1,5-c]pyrimidine)) was diluted in assay buffer (50 mM Tris pH 7.4, 10 mM MgCl2, 0.005% Tween20) to a concentration of 4 nM and 50 μL transferred to each well of the assay plate. To define total and non-specific binding, wells containing 1% DMSO and 1 μM ZM241385 (Tocris Bioscience, Cat. No. 1036) respectively, were also included. The assay plate was incubated at room temperature for 60 minutes with agitation. Using a FilterMate Harvester® (Perkin Elmer), the contents of the assay plate were filtered through a UniFilter-96® PEI coated plate (Perkin Elmer Cat. No. 6005274 or 6005277). Filtering was achieved by aspirating the contents of the assay plate for 5 seconds, then washing and aspirating the contents three times with ice-cooled wash buffer (50 mM Tris-HCl pH 7.4, 150 mM NaCl) and allowing the vacuum manifold to dry the plate for 30 seconds. The filter plate was incubated for at least 1 hour at 55° C. and allowed to dry. The bottom of the filter plate was sealed with backing tape. 40 μL Ultima Gold™ (Perkin Elmer, Cat. No. 6013329) was added to each well of the filter plate and the top of the plate was sealed with TopSeal-A PLUS® clear plate seal (Perkin Elmer, Cat. No. 6050185). The plate was incubated for at least 20 minutes, and then the amount of radioactivity remaining in each well was determined using a TopCount® (Perkin Elmer) scintillation counter. After normalization to total and non-specific binding, the percent effect at each compound concentration was calculated. The plot of percent effect versus the log of compound concentration was analyzed electronically using a 4-parameter logistic fit based on the Levenberg-Marquardt algorithm to generate IC50 values.

T2 sequence (P29274 whole entry): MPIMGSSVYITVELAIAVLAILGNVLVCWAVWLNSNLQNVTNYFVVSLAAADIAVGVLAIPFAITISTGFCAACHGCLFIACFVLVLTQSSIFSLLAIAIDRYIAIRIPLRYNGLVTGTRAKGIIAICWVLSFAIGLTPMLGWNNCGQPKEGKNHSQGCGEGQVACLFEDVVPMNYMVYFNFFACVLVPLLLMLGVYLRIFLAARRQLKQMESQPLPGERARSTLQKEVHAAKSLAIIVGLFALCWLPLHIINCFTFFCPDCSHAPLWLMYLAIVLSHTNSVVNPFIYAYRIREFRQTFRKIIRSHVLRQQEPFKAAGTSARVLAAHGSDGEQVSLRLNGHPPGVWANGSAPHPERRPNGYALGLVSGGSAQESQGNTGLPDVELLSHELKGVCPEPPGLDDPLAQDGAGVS

For the molecule `Cc1c(-c2ncco2)nc(N)n2nc([C@@H]3CC[C@H](C)NC3)nc12` [Example 2.9, 8-methyl-2-((3R,6S)-6-methylpiperidin-3-yl)-7-(oxazol-2-yl)-[1,2,4]triazolo[1,5-c]pyrimidin-5-amine], the results for the IC50 in assay [1] and in assay [2] were 2410 nM and 129 nM, respectively.

As for `Cc1c(-c2cccc(F)c2)nc(N)c2nc(C3CCCC(C)(O)C3)nn12` (single isomer, unassigned) [Example 8.10-2, (1R,3S or 1S,3R or 1R,3R or 1S,3S)-1-3-(8-amino-6-(3-fluorophenyl)-5-methyl-[1,2,4]triazolo[1,5-a]pyrazin-2-yl)-1-methylcyclohexan-1-ol], the IC50 worked out at 2540 nM in assay [1] and 363 nM in assay [2].

As to `Cc1c(-c2ncco2)nc(N)c2nc(C3CCC(C)(O)C3)nn12` (single isomer, unassigned) [Example 8.6, (1R,3S and 1S,3R) or (1R,3R and 1S,3S)-(8-amino-5-methyl-6-(oxazol-2-yl)-[1,2,4]triazolo[1,5-a]pyrazin-2-yl)-1-methylcyclopentan-1-ol], the IC50 in assay [1] is 142 nM; in assay [2], 6.5 nM.

Take `Cc1cc(N2CCC[C@@H](c3nc4c(C)c(-c5ncco5)nc(N)n4n3)C2)cn(C(F)F)c1=O` [Example 3.14, (R)-5-(3-(5-amino-8-methyl-7-(oxazol-2-yl)-[1,2,4]triazolo[1,5-c]pyrimidin-2-yl)piperidin-1-yl)-1-(difluoromethyl)-3-methylpyridin-2(1H)-one]: the IC50 was determined as 116 nM in assay [1] and 0.2 nM in assay [2].

On to `Cc1c(-c2ncco2)nc(N)n2nc(C3CCCC(C)(O)C3)nc12` (single isomer, unassigned) [Example 8.3-2, (1-R or S,3-R or S)-3-(5-amino-8-methyl-7-(oxazol-2-yl)-[1,2,4]triazolo[1,5-c]pyrimidin-2-yl)-1-methylcyclohexan-1-ol], for which the figures for the IC50 in assay [1] and in assay [2] were 64.5 nM and 0.9 nM, respectively.

Take `Cc1c(-c2cccc(F)c2)nc(Br)c2nc([C@H]3C[C@@H]3C(C)(C)O)nn12` (mixture of isomers) [Example 1.2, 2-((1S,2S and 1R,2R)-2-(8-bromo-6-(3-fluorophenyl)-5-methyl-[1,2,4]triazolo[1,5-a]pyrazin-2-yl)cyclopropyl)propan-2-ol]: the figures for the IC50 in assay [1] and in assay [2] were 202 nM and 23.3 nM, respectively.

In the case of `Cc1c(-c2ncco2)nc(N)n2nc([C@@H]3CCCN(c4cnn(CC(F)(F)F)c4)C3)nc12` [Example 3.5, (R)-8-methyl-7-(oxazol-2-yl)-2-(1-(1-(2,2,2-trifluoroethyl)-1H-pyrazol-4-yl)piperidin-3-yl)-[1,2,4]triazolo[1,5-c]pyrimidin-5-amine], the IC50 came out at 34.4 nM in assay [1] and 1.3 nM in assay [2].

Consider `Cc1c(-c2ncco2)nc(N)n2nc([C@H]3C[C@@H](O)C3)nc12` [Example 2.8, (1s,3s)-3-(5-amino-8-methyl-7-(oxazol-2-yl)-[1,2,4]triazolo[1,5-c]pyrimidin-2-yl)cyclobutan-1-ol], for which the half-maximal inhibitory concentration (IC50) amounted to 250 nM in assay [1] and 72.9 nM in assay [2].

As to `Cc1c(-c2ncco2)nc(N)n2nc([C@@H]3CCCN(c4cnn(C(C)C(C)(C)O)c4)C3)nc12` (single isomer, unassigned) [Example 2.10, (R or S)-3-(4-((R)-3-(5-amino-8-methyl-7-(oxazol-2-yl)-[1,2,4]triazolo[1,5-c]pyrimidin-2-yl)piperidin-1-yl)-1H-pyrazol-1-yl)-2-methylbutan-2-ol], the figures for the IC50 in assay [1] and in assay [2] were 261 nM and 1.2 nM, respectively.

`Cc1c(-c2ncco2)nc(N)n2nc([C@@H]3CCCNC3)nc12` [Example 2.3, (R)-8-methyl-7-(oxazol-2-yl)-2-(piperidin-3-yl)-[1,2,4]triazolo[1,5-c]pyrimidin-5-amine]: the IC50 in assay [1] was found to be 1040 nM; in assay [2] it was 20.5 nM.

As for `Cc1c(-c2cccc(F)c2)nc(N)c2nc(C3CCCC(C)(O)C3)nn12` (single isomer, unassigned) [Example 8.11-2, (1R,3S or 1S,3R or 1R,3R or 1S,3S)-1-3-(8-amino-6-(3-fluorophenyl)-5-methyl-[1,2,4]triazolo[1,5-a]pyrazin-2-yl)-1-methylcyclohexan-1-ol], the 50% inhibitory concentration (IC50) in assay [1] was determined as 238 nM; in assay [2], 13.5 nM.

In the case of `Cc1c(-c2cccc(F)c2)nc(N)c2nc(C3CCCC(C)(O)C3)nn12` (single isomer, unassigned) [Example 8.10-1, (1R,3S or 1S,3R or 1R,3R or 1S,3S)-1-3-(8-amino-6-(3-fluorophenyl)-5-methyl-[1,2,4]triazolo[1,5-a]pyrazin-2-yl)-1-methylcyclohexan-1-ol], the results for the IC50 in assay [1] and in assay [2] were 2640 nM and 175 nM, respectively.

For `CCn1cc(N2C[C@@H](c3nc4c(C)c(-c5cccc(F)c5)nc(N)n4n3)CC[C@H]2C)cn1` [Example 2.17, 2-((3S,6R)-1-(1-ethyl-1H-pyrazol-4-yl)-6-methylpiperidin-3-yl)-7-(3-fluorophenyl)-8-methyl-[1,2,4]triazolo[1,5-c]pyrimidin-5-amine], the results for the IC50 in assay [1] and in assay [2] were 2150 nM and 47.6 nM, respectively.

Regarding `CNC(=O)C(C)(C)n1cc(N2CCC[C@@H](c3nc4c(C)c(-c5ncco5)nc(N)n4n3)C2)cn1` [Example 3.4, (R)-2-(4-(3-(5-amino-8-methyl-7-(oxazol-2-yl)-[1,2,4]triazolo[1,5-c]pyrimidin-2-yl)piperidin-1-yl)-1H-pyrazol-1-yl)-N,2-dimethylpropanamide], the concentration for half-maximal inhibition (IC50) in assay [1] was found to be 85.5 nM; in assay [2], 5.4 nM.

Turning to `Cc1nn(CC(C)(C)O)cc1N1CCC[C@@H](c2nc3c(C)c(-c4ncco4)nc(N)n3n2)C1` [Example 3.9, (R)-1-(4-(3-(5-amino-8-methyl-7-(oxazol-2-yl)-[1,2,4]triazolo[1,5-c]pyrimidin-2-yl)piperidin-1-yl)-3-methyl-1H-pyrazol-1-yl)-2-methylpropan-2-ol], the half-maximal inhibitory concentration (IC50) in assay [1] came out at 553 nM; in assay [2] it was 0.1 nM.

As usually defined, the IC50 is the midpoint of a concentration-inhibition curve. A lower IC50 goes with greater potency in that assay.
